Measurements taken from patent US8952024B2, “Herbicidal pyrimidone derivatives” (E I du Pont de Nemours and Company, priority 2009, dated 2015).

Tests used:
Format in all cases: in vivo
[1] = test system: barnyardgrass (Echinochloa crus-galli); experiment: Test B flooded paddy test; conditions: for Plant response rating, Flood, Barnyardgrass: 250 g ai/ha, flooded paddy test, visual rating on 0 to 100 scale (0 no effect, 100 complete control) after 13 to 15 days; for Plant response rating, Barnyardgrass: Flood (flooded paddy test), 13 to 15 days
Method in brief: (§1)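 Flooded-pot test: water raised to 3 cm above soil when treating, compound put in the water, level unchanged thereafter. Plants were at 2 leaves. Readout after 13 to 15 days, visual, relative to controls; 0 signifies no effect and 100 complete control.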

[2] = test system: ducksalad (Heteranthera limosa); experiment: Test B flooded paddy test; conditions: for Plant response rating, Flood, Ducksalad: 250 g ai/ha, flooded paddy test, visual rating on 0 to 100 scale (0 no effect, 100 complete control) after 13 to 15 days; for Plant response rating, Ducksalad: Flood (flooded paddy test), 13 to 15 days
Method in brief: as §1

rice (Oryza sativa) = experiment: Test B flooded paddy test; conditions: for Plant response rating, Flood, Rice: 250 g ai/ha, flooded paddy test, visual rating on 0 to 100 scale (0 no effect, 100 complete control) after 13 to 15 days; for Plant response rating, Rice: Flood (flooded paddy test), 13 to 15 days
Method in brief: as §1

[3] = test system: umbrella sedge (Cyperus difformis); experiment: Test B flooded paddy test; conditions: for Plant response rating, Flood, Sedge, Umbrella: 250 g ai/ha, flooded paddy test, visual rating on 0 to 100 scale (0 no effect, 100 complete control) after 13 to 15 days; for Plant response rating, Sedge, Umbrella: Flood (flooded paddy test), 13 to 15 days
Method in brief: as §1

[4] = test system: barnyardgrass (Echinochloa crus-galli); experiment: Test A pre-/postemergence plant response
Description: (§2) Seeds of barnyardgrass (Echinochloa crus-galli), large crabgrass (Digitaria sanguinalis), giant foxtail (Setaria faberii), morningglory (Ipomoea spp.), pigweed (Amaranthus retroflexus), velvetleaf (Abutilon theophrasti), wheat (Triticum aestivum) and corn (Zea mays) were planted into a blend of loam soil and sand and treated preemergence with a directed soil spray using test chemicals formulated in a non-phytotoxic solvent mixture which included a surfactant. At the same time these species were also treated with postemergence applications of test compounds formulated in the same manner.
(§3) Plants ranged in height from two to ten cm and were in the one- to two-leaf stage for the postemergence treatment. Treated plants and untreated controls were maintained in a greenhouse for approximately ten days, after which time all treated plants were compared to untreated controls and visually evaluated for injury. Plant response ratings, summarized in Table A, are based on a 0 to 100 scale where 0 is no effect and 100 is complete control. A dash (-) response means no test result.

[5] = test system: morningglory (Ipomoea spp.); experiment: Test A pre-/postemergence plant response
Description: as §2, §3

[6] = test system: giant foxtail (Setaria faberii); experiment: Test A pre-/postemergence plant response
Description: as §2, §3

[7] = test system: wheat (Triticum aestivum); experiment: Test A pre-/postemergence plant response
Description: as §2, §3

[8] = test system: large crabgrass (Digitaria sanguinalis); experiment: Test A pre-/postemergence plant response
Description: as §2, §3

[9] = test system: velvetleaf (Abutilon theophrasti); experiment: Test A pre-/postemergence plant response
Description: as §2, §3

[10] = test system: pigweed (Amaranthus retroflexus); experiment: Test A pre-/postemergence plant response
Description: as §2, §3

corn (Zea mays) = experiment: Test A pre-/postemergence plant response
Description: as §2, §3

[11] = 62 g ai/ha, scale of 0 to 100 where 0 is no effect and 100 is complete control
[12] = Postemergence, 125 g ai/ha, 0 to 100 scale where 0 is no effect and 100 is complete control
[13] = Postemergence, 500 g ai/ha, visual injury, 0 to 100 scale (0 no effect, 100 complete control), approx. ten days
[14] = Preemergence, 125 g ai/ha, 0 to 100 scale, 0 = no effect, 100 = complete control
[15] = Preemergence, 500 g ai/ha, 0 to 100 scale, 0 = no effect, 100 = complete control
[16] = Postemergence, 500 g ai/ha, 0 to 100 scale, 0 = no effect, 100 = complete control, approx. ten days
[17] = Preemergence, 500 g ai/ha, visual injury, 0 to 100 scale (0 no effect, 100 complete control), approx. ten days
[18] = 125 g ai/ha, scale 0 to 100, 0 is no effect, 100 is complete control
[19] = Flood, 31 g ai/ha, scale 0 to 100 (0 no effect, 100 complete control)

O=C1CCCC(O)=C1C(=O)c1cnc(-c2ccco2)n(C2CCCCC2)c1=O [Compound 188]
Plant response rating, Flood, Barnyardgrass [1]: 0 | Plant response rating, Barnyardgrass [1, 11]: 0 | Plant response rating, Flood, Ducksalad [2]: 85 | Plant response rating, Ducksalad [2, 11]: 70 | Plant response rating, Flood, Rice (rice (Oryza sativa)): 15 | Plant response rating, Rice (rice (Oryza sativa); [11]): 0 | Plant response rating, Flood, Sedge, Umbrella [3]: 85 | Plant response rating, Sedge, Umbrella [3, 11]: 80 | Plant response rating, Barnyardgrass [4, 12]: 70 | Barnyardgrass plant response rating [4, 13]: 90 | Plant response rating, Barnyardgrass [4, 14]: 0 | Plant response rating, Barnyardgrass [4, 15]: 30 | Plant response rating, Morningglory [5, 12]: 90 | Morningglory plant response rating [5, 13]: 100 | Plant response rating, Morningglory [5, 14]: 70 | Plant response rating, Morningglory [5, 15]: 80 | Plant response rating, Foxtail, Giant [6, 12]: 40 | Foxtail, Giant plant response rating [6, 13]: 80 | Plant response rating, Foxtail, Giant [6, 14]: 10 | Plant response rating, Foxtail, Giant [6, 15]: 40 | Plant response rating, Wheat [7, 12]: 0 | Wheat plant response rating [7, 13]: 0 | Plant response rating, Wheat [7, 14]: 0 | Plant response rating, Wheat [7, 15]: 0 | Plant response rating, Crabgrass, Large [8, 12]: 80 | Crabgrass, Large plant response rating [8, 13]: 90 | Plant response rating, Crabgrass, Large [8, 14]: 30 | Plant response rating, Crabgrass, Large [8, 15]: 70 | Plant response rating, Velvetleaf [9, 12]: 100 | Velvetleaf plant response rating [9, 13]: 100 | Plant response rating, Velvetleaf [9, 14]: 70 | Plant response rating, Velvetleaf [9, 15]: 80 | Plant response rating, Pigweed [10, 12]: 90 | Pigweed plant response rating [10, 13]: 100 | Plant response rating, Pigweed [10, 14]: 60 | Plant response rating, Pigweed [10, 15]: 80 | Plant response rating, Corn (corn (Zea mays); [12]): 0 | Corn plant response rating (corn (Zea mays); [13]): 10 | Plant response rating, Corn (corn (Zea mays); [14]): 0 | Plant response rating, Corn (corn (Zea mays); [15]): 0

CCCn1c(-c2ccn(C)n2)ncc(C(=O)C2=C(O)CCCC2=O)c1=O [Compound 135]
Plant response rating, Flood, Barnyardgrass [1]: 0 | Plant response rating, Barnyardgrass [1, 11]: 0 | Plant response rating, Flood, Ducksalad [2]: 40 | Plant response rating, Ducksalad [2, 11]: 30 | Plant response rating, Flood, Rice (rice (Oryza sativa)): 0 | Plant response rating, Rice (rice (Oryza sativa); [11]): 0 | Plant response rating, Flood, Sedge, Umbrella [3]: 0 | Plant response rating, Sedge, Umbrella [3, 11]: 0 | Plant response rating, Barnyardgrass [4, 12]: 10 | Plant response rating, Barnyardgrass [4, 16]: 30 | Plant response rating, Barnyardgrass [4, 14]: 0 | Plant response rating, Barnyardgrass [4, 17]: 0 | Plant response rating, Morningglory [5, 12]: 70 | Plant response rating, Morningglory [5, 16]: 90 | Plant response rating, Morningglory [5, 14]: 20 | Plant response rating, Morningglory [5, 17]: 50 | Plant response rating, Foxtail, Giant [6, 12]: 0 | Plant response rating, Foxtail, Giant [6, 16]: 0 | Plant response rating, Foxtail, Giant [6, 14]: 0 | Plant response rating, Foxtail, Giant [6, 17]: 0 | Plant response rating, Wheat [7, 12]: 0 | Plant response rating, Wheat [7, 16]: 0 | Plant response rating, Wheat [7, 14]: 0 | Plant response rating, Wheat [7, 17]: 0 | Plant response rating, Crabgrass, Large [8, 12]: 40 | Plant response rating, Crabgrass, Large [8, 16]: 70 | Plant response rating, Crabgrass, Large [8, 14]: 0 | Plant response rating, Crabgrass, Large [8, 17]: 40 | Plant response rating, Velvetleaf [9, 12]: 100 | Plant response rating, Velvetleaf [9, 16]: 100 | Plant response rating, Velvetleaf [9, 14]: 40 | Plant response rating, Velvetleaf [9, 17]: 70 | Plant response rating, Pigweed [10, 12]: 80 | Plant response rating, Pigweed [10, 16]: 90 | Plant response rating, Pigweed [10, 14]: 40 | Plant response rating, Pigweed [10, 17]: 80 | Plant response rating, Corn (corn (Zea mays); [12]): 0 | Plant response rating, Corn (corn (Zea mays); [16]): 0 | Plant response rating, Corn (corn (Zea mays); [14]): 0 | Plant response rating, Corn (corn (Zea mays); [17]): 0

CCCn1c(C2CC2)ncc(C(=O)C2=C(O)CCCC2=O)c1=O [Compound 153]
Plant response rating, Flood, Barnyardgrass [1]: 45 | Plant response rating, Barnyardgrass [1, 11]: 0 | Plant response rating, Barnyardgrass [1, 18]: 35 | Barnyardgrass plant response rating [1, 19]: 0 | Plant response rating, Flood, Ducksalad [2]: 100 | Plant response rating, Ducksalad [2, 11]: 65 | Plant response rating, Ducksalad [2, 18]: 100 | Ducksalad plant response rating [2, 19]: 0 | Plant response rating, Flood, Rice (rice (Oryza sativa)): 65 | Plant response rating, Rice (rice (Oryza sativa); [11]): 35 | Plant response rating, Rice (rice (Oryza sativa); [18]): 55 | Rice plant response rating (rice (Oryza sativa); [19]): 35 | Plant response rating, Flood, Sedge, Umbrella [3]: 95 | Plant response rating, Sedge, Umbrella [3, 11]: 0 | Plant response rating, Sedge, Umbrella [3, 18]: 80 | Sedge, Umbrella plant response rating [3, 19]: 0 | Plant response rating, Barnyardgrass [4, 12]: 80 | Plant response rating, Barnyardgrass [4, 16]: 90 | Plant response rating, Barnyardgrass [4, 14]: 40 | Plant response rating, Barnyardgrass [4, 17]: 80 | Plant response rating, Morningglory [5, 12]: 50 | Plant response rating, Morningglory [5, 16]: 60 | Plant response rating, Morningglory [5, 14]: 20 | Plant response rating, Morningglory [5, 17]: 70 | Plant response rating, Foxtail, Giant [6, 12]: 70 | Plant response rating, Foxtail, Giant [6, 16]: 80 | Plant response rating, Foxtail, Giant [6, 14]: 20 | Plant response rating, Foxtail, Giant [6, 17]: 70 | Plant response rating, Wheat [7, 12]: 0 | Plant response rating, Wheat [7, 16]: 10 | Plant response rating, Wheat [7, 14]: 0 | Plant response rating, Wheat [7, 15]: 20 | Plant response rating, Crabgrass, Large [8, 12]: 90 | Plant response rating, Crabgrass, Large [8, 16]: 90 | Plant response rating, Crabgrass, Large [8, 14]: 80 | Plant response rating, Crabgrass, Large [8, 17]: 100 | Plant response rating, Velvetleaf [9, 12]: 100 | Plant response rating, Velvetleaf [9, 16]: 100 | Plant response rating, Velvetleaf [9, 14]: 100 | Plant response rating, Velvetleaf [9, 15]: 100 | Plant response rating, Pigweed [10, 12]: 100 | Plant response rating, Pigweed [10, 16]: 100 | Plant response rating, Pigweed [10, 14]: 100 | Plant response rating, Pigweed [10, 17]: 100 | Plant response rating, Corn (corn (Zea mays); [12]): 0 | Plant response rating, Corn (corn (Zea mays); [16]): 20 | Plant response rating, Corn (corn (Zea mays); [14]): 20 | Plant response rating, Corn (corn (Zea mays); [17]): 20
